Patent publication US7629453B2, “NF-κB activating gene” (Asahi Kasei Pharma Corporation, priority 2000, dated 2009)
Strand notation (5' to 3'): a small letter for the sugar, then the base; units joined by * are phosphorothioate-linked, units joined directly phosphodiester-linked; [ ] holds rarer units or linkages, { } end groups; capitals alone tell only the bases. Where a SMILES comes first, the peptide text is derived from it. The star is where a group is joined. Cbz = O=C(OCc1ccccc1)*; d = 2'-deoxy (DNA); r = 2'-OH (RNA)

Key:
Assay type in all cases: cell-based
gene of SEQ ID NO:88 [1] = experiment: Expression inhibition of the gene of SEQ ID NO:88 by double stranded nucleic acid (NF-κB luciferase reporter, EBNA cells); conditions: for relative luciferase activity (%): 10 pmol per well, 24 hours, firefly standardized with Renilla, control without double stranded nucleic acid = 100%; for luciferase activity / expression of the protein of SEQ ID NO: 87 (in words): EBNA cells, Lipofectamine 2000, versus cells without double stranded nucleic acid
Description: That is, using Lipofectamine 2000 (Invitrogen), an expression vector having the polynucleotide of SEQ ID NO:88, pNFkB-Luc, phRL-TK vector and double stranded nucleic acid (A) were co-transfected into EBNA cells, and after culturing, luciferase activity was measured.
EBNA cells (Invitrogen) were inoculated on DMEM medium containing 5% FBS in a 96-well cell culture plate to a cell density of 1.2×10^4 cells/100 μl/well, and cultured for 24 hours at 37° C. in the presence of 5% CO2. Next, using Lipofectamine 2000 (Invitrogen), 50 ng of an expression vector having the polynucleotide of SEQ ID NO:88 and 50 ng of pNFkB-Luc (STRATAGENE) and 10 ng of phRL-TK vector (Promega Corporation) used as an internal standard, were co-transfected with double stranded nucleic acid 88-1 (10 pmol) prepared in (1) above into 1 well. After culturing for 24 hours at 37° C., firefly luciferase activity and Renilla reniformis luciferase activity were measured using a Dual-Luciferase Reporter Assay System (Promega Corporation). Further, each of 88-2 (10 pmol), 88-3 (10 pmol), 88-4 (10 pmol), 88-5 (10 pmol) or 88-6 (10 pmol) was co-transfected into 1 well in place of 88-1 (10 pmol), and luciferase activity was measured in the same manner. In Table 1, values for activity represent relative values when firefly luciferase activity in the control experiment (cells into which double stranded nucleic acid has not been introduced) is established as 100%. (It should be noted that values for firefly luciferase activity were standardized with values for Renilla reniformis luciferase activity used as an internal standard, before using these values in calculations.)

gene of SEQ ID NO:88 [2] = experiment: as above; conditions: Lipofectamine 2000, versus cells without double stranded nucleic acid
NF-κB activation = experiment: NF-κB reporter activity inhibition by proteasome inhibitor in 293-EBNA cells cotransfected with NF-κB activating protein expression vector and pNFκB-Luc; conditions: MG-132 0.1, 0.5, 1.0 and 10 μM added 1 hour after transfection; 293-EBNA cells with vector for protein of SEQ ID NO: 5, 9, 17 ... 178; 24 hours
Description: 293-EBNA cells were seeded on 5% FBS containing DMEM medium in a 96-well cell culture plate to a final cell density of 1×10^4 cells/100 μl/well, and cultured for 24 hours at 37° C. in the presence of 5% CO2. Then, 50 ng of the expression vector comprising the gene encoding NF-κB activating protein of SEQ ID NO: 5, 9, 17, 21, 35, 37, 41, 53, 57, 63, 67, 71, 75, 81, 87, 91, 93, 97, 121, 123, 129, 154, 158, 162, 168, 170, 172, 176 or 178, and 50 ng of the reporter plasmid pNF κB-Luc were cotransfected into the cells in a well using FuGENE 6. After 1 hour, the proteasome inhibitor MG-132 (purchased form CALBIOCHEM) (Uehara T. et al., J. Biol. Chem. 274, p. 15875-15882 (1999); Wang X. C. et al., Invest. Ophathalmol. Vis. Sci. 40, p. 477-486) was added to the culture to final concentrations of 0.1 μM, 0.5 μM, 1.0 μM and 10 μM, respectively. After 24 hours of culture at 37° C., the reporter activity was measured using PIKKA GENE LT2.0.

| Compound | relative luciferase activity (%) (gene of SEQ ID NO:88 [1]) | luciferase activity / expression of the protein of SEQ ID NO: 87 (in words) (gene of SEQ ID NO:88 [1]) | also measured |
| --- | --- | --- | --- |
| 88-1: double stranded nucleic acid annealed from oligonucleotides A1 (SEQ ID NO: 185) and B1 (SEQ ID NO: 186), targeting SEQ ID NO: 88 (chain 1 rGrUrCrCrArGrGrArUrArUrCrArUrGrArGrUrCdTdT; chain 2 rGrArCrUrCrArUrGrArUrArUrCrCrUrGrGrArCdTdT; siRNA) | 18 | exhibited inhibition of firefly luciferase activity | luciferase activity / expression of the protein of SEQ ID NO: 87 (in words) (gene of SEQ ID NO:88 [2]): markedly lower |
| 88-2: double stranded nucleic acid annealed from oligonucleotides A2 (SEQ ID NO: 187) and B2 (SEQ ID NO: 188) (chain 1 rGrArArGrUrCrUrGrArArGrArUrCrUrArUrCrCdTdT; chain 2 rGrGrArUrArGrArUrCrUrUrCrArGrArCrUrUrCdTdT; siRNA) | 12 | exhibited inhibition of firefly luciferase activity | luciferase activity / expression of the protein of SEQ ID NO: 87 (in words) (gene of SEQ ID NO:88 [2]; listed as (B)): similarly inhibited |
| 88-3: double stranded nucleic acid annealed from oligonucleotides A3 (SEQ ID NO: 189) and B3 (SEQ ID NO: 190) (chain 1 rGrCrUrGrArArGrArArGrArGrGrUrGrUrUrCrCdTdT; chain 2 rGrGrArArCrArCrCrUrCrUrUrCrUrUrCrArGrCdTdT; siRNA) | 9 | exhibited inhibition of firefly luciferase activity | luciferase activity / expression of the protein of SEQ ID NO: 87 (in words) (gene of SEQ ID NO:88 [2]; listed as (C)): similarly inhibited |
| 88-4: double stranded nucleic acid annealed from oligonucleotides A4 (SEQ ID NO: 191) and B4 (SEQ ID NO: 192) (chain 1 rGrArUrGrArCrArCrArGrArUrGrArArGrCrCrCdTdT; chain 2 rGrGrGrCrUrUrCrArUrCrUrGrUrGrUrCrArUrCdTdT; siRNA) | 8 | exhibited inhibition of firefly luciferase activity | luciferase activity / expression of the protein of SEQ ID NO: 87 (in words) (gene of SEQ ID NO:88 [2]; listed as (D)): similarly inhibited |
| 88-5: double stranded nucleic acid annealed from oligonucleotides A5 (SEQ ID NO: 193) and B5 (SEQ ID NO: 194) (chain 1 GCCCUCAGAGUCCAGAAUCTT; chain 2 GAUUCUGGACUCUGAGGGCTT; siRNA; sugars from the 5' end r19 d2, backbone not given here) | 5 | exhibited inhibition of firefly luciferase activity | luciferase activity / expression of the protein of SEQ ID NO: 87 (in words) (gene of SEQ ID NO:88 [2]): similarly inhibited |
| 88-6: double stranded nucleic acid annealed from oligonucleotides A6 (SEQ ID NO: 195) and B6 (SEQ ID NO: 196) (chain 1 GAUGACUUUGGUAUCAAACTT; chain 2 GUUUGAUACCAAAGUCAUCTT; siRNA; sugars from the 5' end r19 d2, backbone not given here) | 7 | exhibited inhibition of firefly luciferase activity | luciferase activity / expression of the protein of SEQ ID NO: 87 (in words) (gene of SEQ ID NO:88 [2]; listed as (F)): similarly inhibited |
| CC(C)C[C@@H](C=O)NC(=O)[C@H](CC(C)C)NC(=O)[C@H](CC(C)C)NC(=O)OCc1ccccc1 [MG132, MG-132] (Cbz-Leu-Leu-Leu-aldehyde) |  |  | expression of the reporter gene (NF-κB reporter activity) (NF-κB activation): inhibited the expression of the reporter gene |
